Target: T1, vitamin D receptors (Mus musculus, UniProt P48281)
T1 construct: the skin treated is removed and the epidermis is separated from the dermis; from tissue; host or cells: epidermis of SKH mice (in vivo, topical application)
T1 sequence (P48281 1-422): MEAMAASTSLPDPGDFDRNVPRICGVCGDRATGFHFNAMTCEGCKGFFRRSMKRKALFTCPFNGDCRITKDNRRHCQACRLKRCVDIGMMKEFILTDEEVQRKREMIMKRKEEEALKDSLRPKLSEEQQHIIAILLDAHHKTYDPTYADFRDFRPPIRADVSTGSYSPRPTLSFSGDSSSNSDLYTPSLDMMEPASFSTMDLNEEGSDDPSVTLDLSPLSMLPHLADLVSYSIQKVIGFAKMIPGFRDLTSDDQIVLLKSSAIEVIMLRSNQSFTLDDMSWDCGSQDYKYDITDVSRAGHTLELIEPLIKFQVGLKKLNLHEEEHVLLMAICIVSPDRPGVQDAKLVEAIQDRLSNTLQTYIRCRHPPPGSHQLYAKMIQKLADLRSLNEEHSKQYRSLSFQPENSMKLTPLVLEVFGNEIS
Experiment: Induction of 24-Hydroxylase mRNA in the epidermis of SKH mice after a single topical application (semiquantitative PCR)
Type: in vivo
Conditions: for Expression of the mRNA for 24-Hydroxylase: Induction factor versus ethanol: single topical application of 50 μl to the back, epidermis 8 hours after application, normalized to GAPDH mRNA
Method: The test protocol used is the following:
SKH mice receive a single topical application of a compound according to the invention in solution in ethanol in increasing concentrations. A volume of 50 μl of the product to be tested or of the vehicle alone is applied to the back of the mice with the aid of a pipette.
A volume of 50 μl of the product to be tested or of the vehicle alone is applied to the back of the mice with the aid of a pipette.
8 hours after the topical application, the mice are humanely killed, the skin treated is removed and the epidermis is separated from the dermis. The quantification of the mRNA for 24-Hydroxylase is carried out by semiquantitative PCR.

[1] = concentration 0.1 % (weight/volume) in ethanol
[2] = concentration 1 % (weight/volume) in ethanol

| SMILES | Expression of the mRNA for 24-Hydroxylase: Induction factor versus ethanol [1] | Expression of the mRNA for 24-Hydroxylase: Induction factor versus ethanol [2] | Activity (induction of 24-Hydroxylase mRNA) compared with 1,25-(OH)2-vitamin D3 (at the concentration of 1%, single topical application, SKH mice) |
| --- | --- | --- | --- |
| CCC(O)(CC)CC/C=C(\C)c1cccc(OCc2ccc(CO)c(CO)c2)c1 [Example 72, (E)-7-[3-(3,4-bis-Hydroxymethylbenzyloxy)phenyl]-3-ethyloct-6-en-3-ol] | 17 | – | – |
| CC/C(=C\C=C\C(O)(CC)CC)c1cccc(OCc2ccc(CO)c(CO)c2)c1 [Example 68, (4E,6E)-7-[3-(3,4-bis-Hydroxymethylbenzyloxy)phenyl]-3-ethylnona-4,6-dien-3-ol] | 25 | – | – |
| CCC(O)(/C=C/C=C(\C)c1cccc(C=Cc2ccc(CO)c(CO)c2)c1)CC [Example 61, (4E-6E)-7-{3-[2-(3,4-bis-Hydroxymethylphenyl}vinyl]-phenyl)-3-ethylocta-4,6-dien-3-ol] | – | 10 | – |
| CCC(O)(/C=C/C=C(\C)c1cccc(CCc2ccc(CO)c(CO)c2)c1)CC [Example 59, (4E,6E)-7-{3-[2-(3,4-bis-Hydroxymethylphenyl)ethyl]-phenyl}-3-ethylocta-4,6-dien-3-ol] | 20.5 | – | – |
| CC(=CC=CC(C)(C)O)c1cccc(OCc2ccc(CO)c(CO)c2)c1 [Example 4, 6-[3-(3,4-bis-Hydroxymethylbenzyloxy)phenyl]-2-methylhepta-3,5-dien-2-ol] | – | 11 | comparable to that of 1,25-(OH)2-vitamin D3 at 0.001% |
| CCC(O)(/C=C/C=C(\C)c1cccc(COc2ccc(CO)c(CO)c2)c1)CC [Example 82, (4E,6E)-7-[3-(3,4-bis-Hydroxymethylphenoxy-methyl)phenyl]-3-ethylocta-4,6-dien-3-ol] | 21 | – | – |
| CCC(O)(/C=C/C=C(\C)c1cccc(OCc2ccc(CO)c(CO)c2)c1)CC [Example 65, (4E,6E)-7-[3-(3,4-bis-Hydroxymethylbenzyloxy)phenyl]-3-ethylocta-4,6-dien-3-ol] | – | 15 | – |
